From PubChem BioAssay AID250 (DTP/NCI, 2004)
Values joined by “and” are separate entries in the source; they are usually repeats but may differ in a detail not shown here. Identical values can stand only once. Inconclusive results and toxic doses are left out. How the source made its calls: active means survival T/C of 150% or more; inactive means T/C below 125% in these data.

Tested on: BDF1 mice, L1210 leukemia sc, survival T/C
Assay: NCI In Vivo Anticancer Drug Screen. Data for tumor model L1210 Leukemia (subcutaneous) in B6D2F1 (BDF1) mice
Conditions: endpoint: median survival time, higher = longer survival
Experimental: The antitumor activity of compounds was measured in mice bearing transplantable tumors. Survival or tumor size were measured and the results are expressed as the measurement made in the treated group (T) divided by the measurement made in the vehicle treated control group (C). The tumor model used in this assay is L1210 Leukemia (subcutaneous) in B6D2F1 (BDF1) mice

[1] = dose: 39.0 mg/kg/injection, schedule: Q01DX Z (sc), vehicle: saline
[2] = dose: 65.0 mg/kg/injection, schedule: Q01DX Z (sc), vehicle: saline
[3] = dose: 108.0 mg/kg/injection, schedule: Q01DX Z (sc), vehicle: saline
[4] = dose: 14.0 mg/kg/injection, schedule: Q01DX Z (sc), vehicle: carboxymethylcellulose (CMC)
[5] = dose: 23.0 mg/kg/injection, schedule: Q01DX Z (sc), vehicle: carboxymethylcellulose (CMC)
[6] = dose: 39.0 mg/kg/injection, schedule: Q01DX Z (sc), vehicle: carboxymethylcellulose (CMC)
[7] = dose: 65.0 mg/kg/injection, schedule: Q01DX Z (sc), vehicle: carboxymethylcellulose (CMC)

Measured: T/C

C[C@H](N)C(=O)N[C@@H]1[C@H]2C(=C(O)C[C@@H](O)[C@@H]2O)C(=O)O[C@@H]1C
active: dose: 833.0 mg/kg/injection, schedule: Q01DX Z (sc), vehicle: saline 163 % of control | dose: 1800.0 mg/kg/injection, schedule: Q01DX Z (sc), vehicle: saline 150 % of control
inactive: [1] 109 % of control | [2] 109 % of control | [3] 100 % of control | dose: 180.0 mg/kg/injection, schedule: Q01DX Z (sc), vehicle: saline 100 % of control and 104 % of control | dose: 180.0 mg/kg/injection, schedule: Q#A X Z (sc), vehicle: saline 103 % of control | dose: 300.0 mg/kg/injection, schedule: Q01DX Z (sc), vehicle: saline 100 % of control and 109 % of control | dose: 300.0 mg/kg/injection, schedule: Q#A X Z (sc), vehicle: saline 107 % of control | dose: 389.0 mg/kg/injection, schedule: Q01DX Z (sc), vehicle: saline 112 % of control | dose: 500.0 mg/kg/injection, schedule: Q01DX Z (sc), vehicle: saline 107 % of control and 118 % of control | dose: 500.0 mg/kg/injection, schedule: Q#A X Z (sc), vehicle: saline 103 % of control | dose: 1388.0 mg/kg/injection, schedule: Q#A X Z (sc), vehicle: saline 115 % of control

NC(CSC(c1ccccc1)(c1ccccc1)c1ccccc1)C(=O)O (configuration not stated)
inactive: dose: 5.0 mg/kg/injection, schedule: Q03HX003 (sc), vehicle: saline 114 % of control | dose: 8.4 mg/kg/injection, schedule: Q03HX003 (sc), vehicle: saline 117 % of control | dose: 39.0 mg/kg/injection, schedule: Q03HX003 (sc), vehicle: saline 92 % of control | dose: 108.0 mg/kg/injection, schedule: Q04DX003 (sc), vehicle: saline 121 % of control | dose: 300.0 mg/kg/injection, schedule: Q02DX005 (sc), vehicle: saline 89 % of control | dose: 500.0 mg/kg/injection, schedule: Q02DX005 (sc), vehicle: saline 92 % of control | dose: 833.0 mg/kg/injection, schedule: Q04DX003 (sc), vehicle: saline 114 % of control
active: dose: 23.0 mg/kg/injection, schedule: Q03HX003 (sc), vehicle: saline 150 % of control | dose: 65.0 mg/kg/injection, schedule: Q01DX009 (sc), vehicle: saline 150 % of control

Nc1[nH]c(=O)nc2[nH]ncc12
inactive: dose: 46.8 mg/kg/injection, schedule: Q01DX Z (sc), vehicle: methylcellulose (MC) 100 % of control | dose: 78.0 mg/kg/injection, schedule: Q01DX Z (sc), vehicle: methylcellulose (MC) 100 % of control | dose: 130.0 mg/kg/injection, schedule: Q01DX Z (sc), vehicle: methylcellulose (MC) 100 % of control | dose: 216.0 mg/kg/injection, schedule: Q01DX Z (sc), vehicle: methylcellulose (MC) 108 % of control | dose: 360.0 mg/kg/injection, schedule: Q01DX Z (sc), vehicle: methylcellulose (MC) 104 % of control | dose: 600.0 mg/kg/injection, schedule: Q01DX Z (sc), vehicle: methylcellulose (MC) 100 % of control

COC(=N)N
inactive: dose: 1.8 mg/kg/injection, schedule: Q01DX Z (sc), vehicle: methylcellulose (MC) 100 % of control | dose: 3.0 mg/kg/injection, schedule: Q01DX Z (sc), vehicle: methylcellulose (MC) 100 % of control

CN(C)CCNc1ccc([N+](=O)[O-])c2sc3ccccc3c(=O)c12
inactive: [4] 100 % of control | [5] 100 % of control | [6] 100 % of control | [7] 100 % of control and 111 % of control | dose: 108.0 mg/kg/injection, schedule: Q01DX Z (sc), vehicle: carboxymethylcellulose (CMC) 100 % of control | dose: 180.0 mg/kg/injection, schedule: Q01DX Z (sc), vehicle: carboxymethylcellulose (CMC) 111 % of control | dose: 300.0 mg/kg/injection, schedule: Q01DX Z (sc), vehicle: carboxymethylcellulose (CMC) 105 % of control

CN(N=O)C(=O)N[C@@H](C=O)[C@@H](O)[C@H](O)[C@H](O)CO
inactive: dose: 25.0 mg/kg/injection, schedule: Q01DX009 (sc), vehicle: other 123 % of control

O=NN(CCCl)C(=O)N[C@H]1CCCC[C@@H]1Cl
active: dose: 8.4 mg/kg/injection, schedule: Q01DX Z (sc), vehicle: carboxymethylcellulose (CMC) 211 % of control | dose: 11.3 mg/kg/injection, schedule: Q01DX Z (sc), vehicle: carboxymethylcellulose (CMC) 668 % of control | [4] 336 % of control and 472 % of control | dose: 22.5 mg/kg/injection, schedule: Q01DX Z (sc), vehicle: carboxymethylcellulose (CMC) 493 % of control | dose: 23.0 mg/kg/injection, schedule: Q01DX Z (oral), vehicle: carboxymethylcellulose (CMC) 326 % of control | [5] 272 % of control and 336 % of control | dose: 39.0 mg/kg/injection, schedule: Q01DX Z (oral), vehicle: carboxymethylcellulose (CMC) 189 % of control | [6] 278 % of control | dose: 45.0 mg/kg/injection, schedule: Q01DX Z (sc), vehicle: carboxymethylcellulose (CMC) 300 % of control | dose: 65.0 mg/kg/injection, schedule: Q01DX Z (oral), vehicle: carboxymethylcellulose (CMC) 163 % of control | [7] 194 % of control | dose: 90.0 mg/kg/injection, schedule: Q01DX Z (sc), vehicle: carboxymethylcellulose (CMC) 150 % of control
inactive: dose: 3.0 mg/kg/injection, schedule: Q01DX Z (sc), vehicle: carboxymethylcellulose (CMC) 111 % of control | dose: 5.0 mg/kg/injection, schedule: Q01DX Z (sc), vehicle: carboxymethylcellulose (CMC) 111 % of control | dose: 180.0 mg/kg/injection, schedule: Q01DX Z (oral), vehicle: carboxymethylcellulose (CMC) 115 % of control | dose: 300.0 mg/kg/injection, schedule: Q01DX Z (oral), vehicle: carboxymethylcellulose (CMC) 105 % of control

CC1(C)N=C(N)N=C(N)N1c1cccc(Br)c1
inactive: dose: 23.0 mg/kg/injection, schedule: Q01DX Z (sc), vehicle: saline 105 % of control | dose: 39.0 mg/kg/injection, schedule: Q01DX Z (sc), vehicle: methylcellulose (MC) 112 % of control | [1] 100 % of control and 122 % of control | dose: 65.0 mg/kg/injection, schedule: Q01DX Z (sc), vehicle: methylcellulose (MC) 118 % of control | [2] 110 % of control and 122 % of control | [3] 122 % of control

CC[n+]1ccc(Nc2ccc(NC(=O)c3ccc(Nc4cc[n+](CC)c5ccc(N)cc45)cc3)cc2)cc1
inactive: dose: 0.5 mg/kg/injection, schedule: Q01DX009 (sc), vehicle: water 100 % of control | dose: 0.5 mg/kg/injection, schedule: Q03HX024 (ip), vehicle: water 122 % of control | dose: 1.0 mg/kg/injection, schedule: Q01DX009 (sc), vehicle: water 105 % of control | dose: 1.0 mg/kg/injection, schedule: Q03HX024 (sc), vehicle: water 115 % of control | dose: 2.0 mg/kg/injection, schedule: Q03HX008 (sc), vehicle: water 120 % of control | dose: 2.0 mg/kg/injection, schedule: Q04DX003 (sc), vehicle: water 100 % of control | dose: 4.0 mg/kg/injection, schedule: Q01DX001 (sc), vehicle: water 110 % of control | dose: 4.0 mg/kg/injection, schedule: Q01DX009 (ip), vehicle: water 122 % of control | dose: 4.0 mg/kg/injection, schedule: Q04DX003 (sc), vehicle: water 115 % of control | dose: 8.0 mg/kg/injection, schedule: Q01DX001 (sc), vehicle: water 110 % of control | dose: 8.0 mg/kg/injection, schedule: Q01DX009 (ip), vehicle: water 111 % of control | dose: 8.0 mg/kg/injection, schedule: Q03HX024 (ip), vehicle: water 111 % of control
active: dose: 1.0 mg/kg/injection, schedule: Q01DX009 (ip), vehicle: water 172 % of control | dose: 1.0 mg/kg/injection, schedule: Q03HX024 (ip), vehicle: water 177 % of control | dose: 2.0 mg/kg/injection, schedule: Q01DX009 (ip), vehicle: water 172 % of control | dose: 2.0 mg/kg/injection, schedule: Q03HX024 (ip), vehicle: water 200 % of control | dose: 2.0 mg/kg/injection, schedule: Q03HX024 (sc), vehicle: water 160 % of control | dose: 4.0 mg/kg/injection, schedule: Q01DX009 (sc), vehicle: water 210 % of control | dose: 4.0 mg/kg/injection, schedule: Q03HX024 (sc), vehicle: water 190 % of control | dose: 8.0 mg/kg/injection, schedule: Q01DX009 (sc), vehicle: water 170 % of control | dose: 8.0 mg/kg/injection, schedule: Q03HX008 (sc), vehicle: water 185 % of control | dose: 16.0 mg/kg/injection, schedule: Q04DX003 (sc), vehicle: water 165 % of control
